Assay results as given in patent US20220091128A1, “SYSTEM AND METHOD FOR LIGAND THERMAL ANALYSIS” (Portland State University, priority 2019, published 2022).
pKd: −log10 of the molar value. Where two headings read alike, the source gives them in different places.

Columns and labels:
[1] = target: T1, HSA (Homo sapiens, UniProt P02768); parameters: purchased Sigma Aldrich (St. Louis, Mo.); conditions: cited from earlier work; for pKd: binding to HSA, read-out: Average Literature KD; for reported HSA binding activity: literature report
[2] = target: T1, HSA; test: Drug screening: HSA binding constants from DSC thermograms; conditions: for Measured HSA binding (cell spanning the measured KD columns; same in text): result in words
Method: Ligand solubilization: Stock solutions of aqueous insoluble ligands in organic solvents were pipetted into microcentrifuge tubes to yield a desired amount of drug for a 1 mL solution. The microcentrifuge tubes were placed into a vacuum concentrator (Savant SpeedVac Model SC100), and the organic solvents were evaporated, resulting in solid drug in the tube. To each tube, HSA is added at a predetermined concentration with standard buffer to provide a 1 mL working solution.
In total binding of 28 drug compounds to HSA was examined by obtaining thermograms.

[3] = target: T2, human serum albumin (HSA) (Homo sapiens, UniProt P02768); test: DSC thermograms of HSA with ligand (single-ligand titration); format: binding
T2 construct: purchased Sigma Aldrich (St. Louis, Mo.)
Method: Chemicals and reagents: Plasma and highly pure plasma proteins are sourced from commercial suppliers. Standard reagents are sourced from commercial suppliers. Samples are prepared in standard phosphate-buffered saline (PBS) buffer. In some examples, human plasma and serum albumin were purchased from Sigma Aldrich (St. Louis, Mo.) and received as lyophilized powder. Plasma was product number: P9523, lot number: SLBT0202. […] In vivo, the standard state of HSA is most certainly bound to some extent by fatty acids. Plasma and HSA stock solutions were prepared by re-suspending the appropriate amount of powder in buffer. Samples were prepared by diluting stock solutions to a final concentration of 1.5-2.0 mg/mL.
Protein concentration was approximately 2 mg/ml.
In a DSC melting experiment, the supplemental power supplied to the sample cell (in μW) necessary to keep the sample temperature equal to the reference temperature is continually monitored. […] Supplemental power is directly related to the molar heat capacity at constant pressure, ΔCp. Curves of ΔCp versus T provide an evaluation of the thermodynamic enthalpy. To enable direct comparisons in some cases, power (μW) versus T plots (instead of ΔCp versus T curves) were used for the following reason.
Analysis of DSC data was performed using the Nanoanalyze software package, version 3.7.5, provided by T.A. Instruments. […]
From the thermograms, semi-quantitative evaluations of the thermodynamic parameters ΔHcal, ΔScal and ΔGcal(37° C.) were obtained at each ligand concentration.
These curves were constructed from titrations of DM1 with HSA. The Tm and ΔGcal(37° C.) were evaluated. The values were normalized against standard HSA and plotted versus ligand concentration to provide the dose curves in FIG. 20A (Tm) and FIG. 20B (ΔGcal(37° C.)).
Natural HSA samples were prepared at pH 6.0 and pH 8.0 and examined by DSC. […] From DSC melting curves thermodynamic parameters for HSA/ligand mixtures were evaluated.

[4] = tested on: human plasma; test: DSC thermograms of plasma with ligand; format: binding
[5] = Average Measured KD, binding to HSA; single value or value marked 1)
[6] = Measured KD From TM, binding to HSA; single value or value marked 1)
[7] = Measured KD from ΔG^037, binding to HSA; single value or value marked 1)
[8] = read-out: Average Measured KD; binding to HSA; single value or value marked 1)
[9] = read-out: Measured KD From TM; binding to HSA; single value or value marked 1)
[10] = read-out: Measured KD from ΔG^037; binding to HSA; single value or value marked 1)

T1 sequence (P02768 25-609): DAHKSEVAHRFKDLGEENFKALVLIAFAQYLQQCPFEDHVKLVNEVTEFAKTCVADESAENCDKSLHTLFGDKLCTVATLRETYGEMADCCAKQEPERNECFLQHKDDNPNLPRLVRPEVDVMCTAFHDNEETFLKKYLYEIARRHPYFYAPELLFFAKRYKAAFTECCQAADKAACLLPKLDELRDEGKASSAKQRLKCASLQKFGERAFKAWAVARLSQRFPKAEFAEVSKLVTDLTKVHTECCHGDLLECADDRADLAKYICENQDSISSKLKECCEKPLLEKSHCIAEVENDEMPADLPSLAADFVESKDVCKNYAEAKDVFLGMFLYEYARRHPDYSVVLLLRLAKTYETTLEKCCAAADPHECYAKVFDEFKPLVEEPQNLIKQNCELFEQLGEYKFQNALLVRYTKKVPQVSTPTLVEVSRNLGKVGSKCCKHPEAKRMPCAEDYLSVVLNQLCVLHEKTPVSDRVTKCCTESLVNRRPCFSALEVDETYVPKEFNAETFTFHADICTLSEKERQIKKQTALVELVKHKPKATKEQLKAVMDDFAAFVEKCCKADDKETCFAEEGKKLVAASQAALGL
T2 sequence (P02768 25-609): as above

SMILES | pKd [1] | pKd [2, 5] | pKd [2, 6] | pKd [2, 7] | also measured
COCCc1ccc(OCC(O)CNC(C)C)cc1 (stereo not drawn) [Metoprolol (MEP), Metoprolol] | 4.13 | 4.95 | 5.52 | 4.72 | 
O=C([O-])CN(CCN(CC(=O)[O-])CC(COP(=O)(O)OC1CCC(c2ccccc2)(c2ccccc2)CC1)N(CC(=O)[O-])CC(=O)[O-])CC(=O)O.[Gd+3].[Na+] (stereo not drawn) [Ablavar (AB)] | 4.22 |  |  |  | 
C[C@H](CS)C(=O)N1CCC[C@H]1C(=O)O [Captopril (CAP), Captopril] | 3.72 | 5.43 | 5.26 | 5.69 | 
O=C([O-])CN1CCN(CC(=O)[O-])CCN(CC(=O)O)CCN(CC(=O)[O-])CC1.[Gd+3] [Dotarem (DOTA), gadoteric acid] |  |  |  |  | reported HSA binding activity [1]: not have any measurable HSA binding activity; Measured HSA binding (cell spanning the measured KD columns; same in text) [2]: No Binding Detected; Measured HSA binding (cell spanning the measured KD columns; same in text) ([2]; listed as Dotarem): no binding was observed
C[CH2][Hg][S]c1ccccc1C(=O)[O-].[Na+] [Thimerosal (TMS), Thimerosal] | 3.47 |  |  |  | 
CNC[C@H](O)[C@@H](O)[C@H](O)[C@H](O)CO.CNC[C@H](O)[C@@H](O)[C@H](O)[C@H](O)CO.O=C([O-])CN(CCN(CC(=O)[O-])CC(=O)O)CCN(CC(=O)O)C(COCc1ccccc1)C(=O)[O-].[Gd+3] (stereo not drawn) [Multihance (MH)] | 2.71 |  |  |  | pKd [2, 8]: 2.87; pKd [2, 9]: 2.86; pKd [2, 10]: 2.89
CCN(CC)CCCC(C)Nc1ccnc2cc(Cl)ccc12 (stereo not drawn) [CQ, Chloroquine] |  |  |  |  | Implied number of sites [3]: 1; effect on fibrinogen melting transition peak (52° C.) of the plasma thermogram [4]: significant perturbation
CC(NC(C)(C)C)C(=O)c1cccc(Cl)c1 (stereo not drawn) [Bupropion (BPR), Bupropion] | 3.76 | 6.60 | 6.55 | 6.68 | pKd ([2]; Average Measured KD, binding to HSA; second value marked 2)): 4.71; pKd ([2]; Measured KD From TM, binding to HSA; second value marked 2)): 4.54; pKd ([2]; Measured KD from ΔG^037, binding to HSA; second value marked 2)): 4.99
CCCCCc1cc(O)c2c(c1)OC(C)(C)[C@@H]1CCC(C)=C[C@@H]21 [Δ9-tetrahydrocannabinol (THC), Δ9-tetrahydrocannabinol] | ≥ 7.00 |  |  |  | pKd [2, 8]: 7.46; pKd [2, 9]: 7.60; pKd [2, 10]: 7.32
C=CC1=C(C)/C(=C/c2[nH]c(Cc3[nH]c(/C=C4\NC(=O)C(C)=C4C=C)c(C)c3CCC(=O)O)c(CCC(=O)O)c2C)NC1=O [Bilirubin (BIL), Bilirubin] | 7.13 | 6.48 | 6.39 | 6.60 | 
CC(O)CN1CCN(CC(=O)[O-])CCN(CC(=O)[O-])CCN(CC(=O)[O-])CC1.[Gd+3] (stereo not drawn) [Prohance (PRO), gadoteridol] |  |  |  |  | reported HSA binding activity [1]: not display HSA binding activity
O=C1OC2(c3ccc(O)cc3Oc3cc(O)ccc32)c2ccccc21 [Fluorescein (FSC), Fluorescein] | 3.67 | 4.17 | 4.10 | 4.25 | 
